This is an account of results in patent EP2272817A1, “PAI-1 INHIBITOR” (Institute of Medicinal Molecular Design, Inc., priority 2008, dated 2009).

In the experiment the target is recombinant human PAI-1 (Homo sapiens, UniProt P05121). Put plainly: Test Example 2: Human PAI-1 Inhibitory Activity (pH 7.4 HEPES buffer, 10 minutes incubation with two-chain tPA). The following applies: read-out: Inhibition Rate of PAI-1 Activity (%). Further details: purchased Molecular Innovations, Inc. Type of experiment: biochemical. On the procedure: 0.1 M HEPES, 0.1 M NaCl. 1 mM EDTA. 0.1 % Polyethylene glycol 8,000 (Hampton Research Corporation),
2 mM Dimethyldecylphoshine oxide [Apo-10] (Fluka Corporation)

Sequence of recombinant human PAI-1 (P05121 24-402): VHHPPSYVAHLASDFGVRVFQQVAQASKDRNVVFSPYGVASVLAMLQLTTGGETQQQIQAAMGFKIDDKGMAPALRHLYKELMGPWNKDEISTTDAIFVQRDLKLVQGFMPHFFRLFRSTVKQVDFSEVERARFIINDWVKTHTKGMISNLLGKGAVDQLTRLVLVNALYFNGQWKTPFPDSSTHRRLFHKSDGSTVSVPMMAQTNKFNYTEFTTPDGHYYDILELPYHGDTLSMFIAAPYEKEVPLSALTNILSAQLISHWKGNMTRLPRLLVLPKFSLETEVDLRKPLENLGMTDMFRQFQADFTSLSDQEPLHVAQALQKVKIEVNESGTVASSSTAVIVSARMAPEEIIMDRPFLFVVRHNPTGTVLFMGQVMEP

By inhibition is commonly meant the share of the control response that was lost under treatment. For the compound `CCCCC(Oc1cc(-c2cccc(C(F)(F)F)c2)ccc1Oc1ccc(C(C)(C)C)cc1)C(=O)O` (stereo not shown) [Compound 318], the inhibition at 0.1 µM was found to be 8%, the inhibition at 0.3 µM was found to be 20%, the inhibition at 1 µM stood at 90% and the inhibition at 3 µM is > 99%.
Regarding `O=C(O)C(=O)N(CCCCc1ccccc1)c1cc(-c2ccc(OC(F)(F)F)cc2)ccc1OC1CCCCC1` [Compound 368], the inhibition at 0.1 µM came out at 0%, the inhibition at 0.3 µM amounted to 22%, the inhibition at 1 µM was 95% and the inhibition at 3 µM amounted to 85%.
`O=C(O)CCc1ccc(-c2ccc(OC(F)(F)F)cc2)cc1Oc1ccc2ccccc2c1` [Compound 476]: the inhibition at 0.1 µM was 0%, the inhibition at 0.3 µM is 3%, the inhibition at 1 µM came to 65% and the inhibition at 3 µM is > 99%.
The matching figures for `CCCCC(Oc1ccc(-c2ccc(OC(F)(F)F)cc2)cc1Oc1ccc(C(C)(C)C)cc1)C(=O)O` (stereo not shown) [Compound 305]: 6%, 9%, 54% and 88%.
The matching figures for `CC(C)(C)c1ccc(CCc2cc(-c3ccc(OC(F)(F)F)cc3)ccc2OCC(=O)O)cc1` [Compound 551]: 0%, 4%, 92% and > 99%.
As for `CC(C)(C)c1ccc(CN(C(=O)CC(=O)O)c2ccc(-c3ccc(OC(F)(F)F)cc3)cc2)cc1` [Compound 608], the inhibition at 1 µM is 11%, the inhibition at 3 µM stood at 59%, the inhibition at 10 µM is 95% and the inhibition at 25 µM was 95%.
Take `CCCCCCOc1cc(-c2ccc(OC(F)(F)F)cc2)ccc1OC(CCCCCC)C(=O)O` (stereo not shown) [Compound 430]: the inhibition at 0.1 µM came to 1%, the inhibition at 0.3 µM stood at 15%, the inhibition at 1 µM came to 97% and the inhibition at 3 µM is > 99%.
The matching figures for `O=C(O)COc1ccc(-c2ccc(OC(F)(F)F)cc2)cc1OCCCCc1ccccc1` [Compound 337]: 2%, 8%, 19% and 97%.
The matching figures for `CC(C)(C)c1ccc(Oc2cc(-c3ccccc3OC(F)(F)F)ccc2CCC(=O)O)cc1` [Compound 467]: 2%, 6%, 73% and > 99%.
The matching figures for `O=C(O)C(=O)N(CCCCc1ccccc1)c1ccc(N2CCCC2)c(-c2ccc(OC(F)(F)F)cc2)c1` [Compound 673]: 0%, 15%, > 99% and > 99%.
For the compound `O=C(O)/C=C/c1cc(-c2ccc(OC(F)(F)F)cc2)ccc1OCCCCCOc1ccc(-c2ccc(OC(F)(F)F)cc2)cc1/C=C/C(=O)O` [Compound 543], the inhibition at 0.1 µM turned out to be 0%, the inhibition at 0.3 µM came out at 1%, the inhibition at 1 µM is 73% and the inhibition at 3 µM worked out at 94%.
The matching figures for `CCCCCOc1ccc(-c2ccc(C(F)(F)F)cc2)cc1N(CCCCc1ccccc1)C(=O)C(=O)O` [Compound 390]: 4%, 12%, 79% and 87%.
The matching figures for `CC(C)(C)c1ccc(Oc2cc(-c3cccc(OC(F)(F)F)c3)ccc2OCC(=O)O)cc1` [Compound 331]: 2%, 1%, 83% and 98%.
The matching figures for `CCCCC(Oc1cc(Oc2ccc(OC(F)(F)F)cc2)ccc1Oc1ccc(C(C)(C)C)cc1)C(=O)O` (stereo not shown) [Compound 312]: 17%, 24%, 87% and 94%.
Take `CC(C)c1ccc(-c2ccc(CCC(=O)O)c(Oc3ccc(C(C)(C)C)cc3)c2)cc1` [Compound 519]: the inhibition at 0.1 µM is 1%, the inhibition at 0.3 µM worked out at 19%, the inhibition at 1 µM was > 99% and the inhibition at 3 µM is > 99%.
For `CC(C)(C)c1ccc(-c2ccc(CCC(=O)O)c(Oc3ccc(OC(F)(F)F)cc3)c2)cc1` [Compound 480], the inhibition at 0.1 µM worked out at 17%, the inhibition at 0.3 µM worked out at 22%, the inhibition at 1 µM worked out at 80% and the inhibition at 3 µM was > 99%.
The matching figures for `CSc1ccc(-c2ccc(OCC(=O)O)c(Oc3ccc(C(C)(C)C)cc3)c2)cc1` [Compound 448]: 4%, 11%, 39% and > 99%.
The matching figures for `CC(C)(C)c1cccc(Oc2cc(-c3cccc(OC(F)(F)F)c3)ccc2CCC(=O)O)c1` [Compound 515]: 12%, 16%, 86% and > 99%.
The matching figures for `CCCCC(Oc1cc(-c2ccc(OC(F)(F)F)cc2)ccc1OCCCCc1ccccc1)C(=O)O` (stereo not shown) [Compound 306]: 0%, 0%, 72% and 97%.
In the case of `CC(C)(C)c1ccc(Oc2cc(-c3ccc(F)cc3)ccc2OCC(=O)O)cc1` [Compound 459], the inhibition at 0.1 µM is 26%, the inhibition at 0.3 µM was found to be 31%, the inhibition at 1 µM was 42% and the inhibition at 3 µM was 86%.
The matching figures for `CCCCN(CC(=O)O)c1cc(-c2ccc(OC(F)(F)F)cc2)ccc1Oc1ccc(C(C)(C)C)cc1` [Compound 428]: 18%, 36%, 92% and 94%.
`CCCCCCCOc1ccc(-c2ccc(OC(F)(F)F)cc2)cc1N(CCCCc1ccccc1)C(=O)C(=O)O` [Compound 352]: the inhibition at 0.1 µM amounted to 0%, the inhibition at 0.3 µM was 4%, the inhibition at 1 µM was 72% and the inhibition at 3 µM stood at 90%.
The matching figures for `CCCCN(CC(=O)O)c1cc(-c2ccc(OC(F)(F)F)cc2)ccc1OCCCCc1ccccc1` [Compound 433]: 13%, 6%, 41% and 98%.
The matching figures for `O=C(O)C(=O)N(CCCCc1ccccc1)c1cc(-c2ccc(OC(F)(F)F)cc2)ccc1N1CCCCC1` [Compound 370]: 0%, 0%, 66% and 97%.
`CC(C)(C)c1ccc(-c2ccc(CN(C(=O)C(=O)O)c3ccc(OC(F)(F)F)cc3)cc2)cc1` [Compound 615]: the inhibition at 1 µM amounted to 43%, the inhibition at 3 µM amounted to 98%, the inhibition at 10 µM is > 99% and the inhibition at 25 µM was found to be 95%.
In the case of `CCCCCCCCCOc1ccc(N(CCCCc2ccccc2)C(=O)C(=O)O)cc1-c1ccc(OC(F)(F)F)cc1` [Compound 387], the inhibition at 0.1 µM came out at 66%, the inhibition at 0.3 µM was > 99%, the inhibition at 1 µM is > 99% and the inhibition at 3 µM was > 99%.
Turning to `CC(C)(C)c1ccc(COc2ccc(NS(=O)(=O)c3ccc(OC(F)(F)F)cc3)cc2CCC(=O)O)cc1` [Compound 415], the inhibition at 1 µM came out at 41%, the inhibition at 3 µM was 98%, the inhibition at 10 µM is > 99% and the inhibition at 25 µM was > 99%.
For the compound `CCCCOc1ccc(-c2ccc(OC(F)(F)F)cc2)cc1CCC(=O)O` [Compound 407], the inhibition at 1 µM is 14%, the inhibition at 3 µM is 41%, the inhibition at 10 µM was > 99% and the inhibition at 25 µM was 98%.
For `CC(C)(C)c1ccc(Oc2cc(-c3ccc(C(F)(F)F)cc3)ccc2OCC(=O)O)cc1` [Compound 330], the inhibition at 0.1 µM was found to be 0%, the inhibition at 0.3 µM worked out at 1%, the inhibition at 1 µM worked out at 47% and the inhibition at 3 µM was 96%.
As to `O=C(O)c1cc(-c2ccc(OC(F)(F)F)cc2)ccc1OCc1ccccc1` [Compound 401], the inhibition at 3 µM amounted to 15%, the inhibition at 10 µM amounted to 17% and the inhibition at 25 µM stood at 53%.
Take `CC(C)(C)c1ccc(Cc2cc(-c3ccc(OC(F)(F)F)cc3)ccc2OCC(=O)O)cc1` [Compound 550]: the inhibition at 0.1 µM is 0%, the inhibition at 0.3 µM was 2%, the inhibition at 1 µM amounted to 81% and the inhibition at 3 µM is > 99%.
As for `O=C(O)C(=O)N(CCCCc1ccccc1)c1cc(-c2ccc(OC(F)(F)F)cc2)ccc1OCCCC1CCCC1` [Compound 355], the inhibition at 0.1 µM stood at 2%, the inhibition at 0.3 µM turned out to be 3%, the inhibition at 1 µM was found to be 91% and the inhibition at 3 µM was 86%.
With `O=C(O)CCc1ccc(-c2ccc(OC(F)(F)F)cc2)cc1OCCCSc1ccccc1` [Compound 508], the inhibition at 0.1 µM is 18%, the inhibition at 0.3 µM came out at 9%, the inhibition at 1 µM was 48% and the inhibition at 3 µM amounted to 98%.
The matching figures for `CCCCCOc1ccc(-c2cccc(C(F)(F)F)c2)cc1N(CCCCc1ccccc1)C(=O)C(=O)O` [Compound 378]: 20%, 7%, 80% and 91%.
As for `CC(C)(C)c1ccc(Oc2cc(-c3ccc(OC(F)(F)F)cc3)ccc2CC(=O)O)cc1` [Compound 334], the inhibition at 0.1 µM was determined as 0%, the inhibition at 0.3 µM is 1%, the inhibition at 1 µM was 21% and the inhibition at 3 µM amounted to 87%.
